Assay type in all cases: ADME, organism-based
Holding throughout (parameters): dose 30 mg/kg, route oral

A short description of series [1]: AUC (0 to time) in mouse at 30 mg/kg, po. The settings on record: plasma.
Series [2] can be described thus: Cmax in mouse at 30 mg/kg, po. The settings on record: in vivo.
The nature of series [3]: Half life in mouse at 30 mg/kg, po. The conditions noted are these: in vivo.

Broadly, the AUC is concentration integrated over time. Broadly, the Cmax is the maximum level reached in the sampled fluid or tissue. One may read the half-life as the time in which the quantity being followed falls by half. Lower therefore signals rapid decline. With `CN(C(=O)C(c1ccccc1)c1ccccc1)[C@H](CN1CC[C@H](O)C1)c1ccccc1` [ASIMADOLINE], in series [1], the AUC turned out to be 0.493 µg·h/mL. The same compound came in with a Cmax in series [2] of 0.507 µg/mL. This compound also had a half-life in series [3] of 30 min.

The values are drawn from ChEMBL document CHEMBL3393059, “Optimisation of in silico derived 2-aminobenzimidazole hits as unprecedented selective kappa opioid receptor agonists” (Bioorg Med Chem Lett, 2015).
